{"source": "patent US6929685B2", "about": "“Alkylamine derivatives as antifouling agents” (Bayer Atiengesellschaft, priority 2001, dated 2005)", "conditions_in_all_cases": "Dutch harbor, sea water", "key": {"fouling organisms": {"tested_on": "fouling organisms", "test": "Raft panel static immersion test of antifouling paints: overall", "set-up": "key: good (G); satisfactory (S); failure (F)", "text": "(§1) The prepared paints have been evaluated on can stability, adhesion and film defects. The antifouling performance has been tested by application of the paints on raft panels. At first the steel panels had been protected with a standard anticorrosive system for marine environments (300 μm in dft). The to be tested antifouling paint had been applied in 2 layers with a total dry film thickness between 200 and 300 μm. Finally the panels were subjected to a static immersion test on rafts at sea harbors in Holland. The paints were inspected for the presence of fouling (% of area covered with fouling organisms) and of film defects every two months. The tested paint formulations are represented in Table 1.\n(§2) Further explanations to Table 1: • 1. Model coatings of type 1 (MC-1A/B/C) are for the evaluation of the algicidal properties of the claimed structures at three different representative weight-% next to 35% cuprous oxide. Good performing references are model coating MC-2 and MC-3 [35% cuprous oxide+3% Seanine (MC-2) or 35% cuprous oxide+3% Irgarol (MC-3)]. Base level references are “cuprous oxide only” formulations [cuprous oxide only (35% (MC4) and 50% level (MC-5)]. • 2. Model coatings of type 6 and 7 are for the evaluation of the activity of the claimed structures against “hard fouling” in combination with two different types of algicides: claimed structure (1/2/4%; MC-6-A/B/C)+3% Seanine or claimed structure (1/2/4%; MC-7-A/B/C)+3% Irgarol). Base level references are “algicide only” formulations with 3% Seanine (MC-8) or 3% Irgarol (MC-9).\n(§3) 3. Model coatings of type 10 (MC-10A/B) evaluate the total spectrum of biocidal activity by using the claimed structure as only biocide at 2 levels (4 and 8 w %). Good performing references are “cuprous oxide only” formulations [cuprous oxide 35% (MC-4) and 50% (MC-5)]. As blank serves model coating 11 (MC-1 1) containing no biocide at all.\n(§4) The claimed structures were tested at several levels of dosage with and without an algicide as co-biocide. The following formulations were used for comparison: formulations with cuprous oxide, formulations with cuprous oxide and commercial co-biocides, a blank and two formulations that only contained the co-biocide and finally a commercial tributyltin-releasing self polishing system.\n(§5) An even better protection can be obtained by combining claimed structures with co-biocides like the algicides that are commonly used for antifoulings."}, "hard fouling": {"tested_on": "hard fouling", "test": "Raft panel static immersion test of antifouling paints: hard fouling", "set-up": "key: G: Not present; Some light slime; F: Overall covered", "text": "as §1, §2, §3, §4, §5"}, "slime": {"tested_on": "slime", "test": "Raft panel static immersion test of antifouling paints: slime", "set-up": "key: G: Not present; Some light slime; F: Overall covered", "text": "as §1, §2, §3, §4, §5"}, "algae": {"tested_on": "algae", "test": "Raft panel static immersion test of antifouling paints: algae", "set-up": "key: G: Not present; Some light slime; F: Overall covered", "text": "as §1, §2, §3, §4, §5"}, "[1]": {"conditions": "model coating 1A: 35% Cu2O + 1% of compound"}, "[2]": {"conditions": "model coating 1B: 35% Cu2O + 2% of compound"}, "[3]": {"conditions": "model coating 1C: 35% Cu2O + 3% of compound"}, "[4]": {"conditions": "model coating 6A: 1% of compound + 3% Seanine"}, "[5]": {"conditions": "model coating 6B: 2% of compound + 3% Seanine"}, "[6]": {"conditions": "model coating 6C: 4% of compound + 3% Seanine"}, "[7]": {"conditions": "model coating 7A: 1% of compound + 3% Irgarol"}, "[8]": {"conditions": "model coating 7B: 2% of compound + 3% Irgarol"}, "[9]": {"conditions": "model coating 7C: 4% of compound + 3% Irgarol"}, "[10]": {"conditions": "model coating 10A: 4% of compound as only biocide"}, "[11]": {"conditions": "model coating 10B: 8% of compound as only biocide"}}}
{"smiles": "O=CNCCCCCCCCCCCBr", "note": "[Compound 7, N-formyl-11-bromo-undecyl-1-amine]", "values": [{"measurement": "Performance (1 yr immersed) Overall", "setting": "fouling organisms; [1]", "value": "S"}, {"measurement": "Performance (1 yr immersed) Overall", "setting": "fouling organisms; [2]", "value": "S"}, {"measurement": "Performance (1 yr immersed) Overall", "setting": "fouling organisms; [3]", "value": "G"}, {"measurement": "Performance (1 yr immersed) Overall", "setting": "fouling organisms; [4]", "value": "F"}, {"measurement": "Performance (1 yr immersed) Overall", "setting": "fouling organisms; [5]", "value": "S"}, {"measurement": "Performance (1 yr immersed) Overall", "setting": "fouling organisms; [6]", "value": "G"}, {"measurement": "Performance (1 yr immersed) Overall", "setting": "fouling organisms; [7]", "value": "F"}, {"measurement": "Performance (1 yr immersed) Overall", "setting": "fouling organisms; [8]", "value": "S"}, {"measurement": "Performance (1 yr immersed) Overall", "setting": "fouling organisms; [9]", "value": "S"}, {"measurement": "Performance (1 yr immersed) Overall", "setting": "fouling organisms; [10]", "value": "F"}, {"measurement": "Performance (1 yr immersed) Overall", "setting": "fouling organisms; [11]", "value": "S"}, {"measurement": "Performance (1 yr immersed) Hard fouling", "setting": "hard fouling; [1]", "value": "G"}, {"measurement": "Performance (1 yr immersed) Hard fouling", "setting": "hard fouling; [2]", "value": "G"}, {"measurement": "Performance (1 yr immersed) Hard fouling", "setting": "hard fouling; [3]", "value": "G"}, {"measurement": "Performance (1 yr immersed) Hard fouling", "setting": "hard fouling; [6]", "value": "G"}, {"measurement": "Performance (1 yr immersed) Hard fouling", "setting": "hard fouling; [11]", "value": "G"}, {"measurement": "Performance (1 yr immersed) Slime", "setting": "slime; [1]", "value": "S"}, {"measurement": "Performance (1 yr immersed) Slime", "setting": "slime; [2]", "value": "S"}, {"measurement": "Performance (1 yr immersed) Slime", "setting": "slime; [3]", "value": "G"}, {"measurement": "Performance (1 yr immersed) Slime", "setting": "slime; [4]", "value": "S"}, {"measurement": "Performance (1 yr immersed) Slime", "setting": "slime; [5]", "value": "S"}, {"measurement": "Performance (1 yr immersed) Slime", "setting": "slime; [6]", "value": "G"}, {"measurement": "Performance (1 yr immersed) Slime", "setting": "slime; [7]", "value": "S"}, {"measurement": "Performance (1 yr immersed) Slime", "setting": "slime; [8]", "value": "S"}, {"measurement": "Performance (1 yr immersed) Slime", "setting": "slime; [9]", "value": "S"}, {"measurement": "Performance (1 yr immersed) Slime", "setting": "slime; [10]", "value": "F"}, {"measurement": "Performance (1 yr immersed) Slime", "setting": "slime; [11]", "value": "S"}, {"measurement": "Performance (1 yr immersed) Algae", "setting": "algae; [2]", "value": "G"}, {"measurement": "Performance (1 yr immersed) Algae", "setting": "algae; [3]", "value": "G"}, {"measurement": "Performance (1 yr immersed) Algae", "setting": "algae; [4]", "value": "G"}, {"measurement": "Performance (1 yr immersed) Algae", "setting": "algae; [5]", "value": "G"}, {"measurement": "Performance (1 yr immersed) Algae", "setting": "algae; [6]", "value": "G"}, {"measurement": "Performance (1 yr immersed) Algae", "setting": "algae; [7]", "value": "G"}, {"measurement": "Performance (1 yr immersed) Algae", "setting": "algae; [8]", "value": "G"}, {"measurement": "Performance (1 yr immersed) Algae", "setting": "algae; [9]", "value": "G"}]}
{"smiles": "COC(=O)NCCCCCCBr", "note": "[Compound 2, N-methoxycarbonyl-6-bromohexylamine]", "values": [{"measurement": "Performance (1 yr immersed) Overall", "setting": "fouling organisms; [1]", "value": "S"}, {"measurement": "Performance (1 yr immersed) Overall", "setting": "fouling organisms; [2]", "value": "S"}, {"measurement": "Performance (1 yr immersed) Overall", "setting": "fouling organisms; [3]", "value": "G"}, {"measurement": "Performance (1 yr immersed) Overall", "setting": "fouling organisms; [4]", "value": "F"}, {"measurement": "Performance (1 yr immersed) Overall", "setting": "fouling organisms; [5]", "value": "S"}, {"measurement": "Performance (1 yr immersed) Overall", "setting": "fouling organisms; [6]", "value": "G"}, {"measurement": "Performance (1 yr immersed) Overall", "setting": "fouling organisms; [7]", "value": "F"}, {"measurement": "Performance (1 yr immersed) Overall", "setting": "fouling organisms; [8]", "value": "S"}, {"measurement": "Performance (1 yr immersed) Overall", "setting": "fouling organisms; [9]", "value": "S"}, {"measurement": "Performance (1 yr immersed) Overall", "setting": "fouling organisms; [10]", "value": "F"}, {"measurement": "Performance (1 yr immersed) Overall", "setting": "fouling organisms; [11]", "value": "S"}, {"measurement": "Performance (1 yr immersed) Hard fouling", "setting": "hard fouling; [1]", "value": "G"}, {"measurement": "Performance (1 yr immersed) Hard fouling", "setting": "hard fouling; [2]", "value": "G"}, {"measurement": "Performance (1 yr immersed) Hard fouling", "setting": "hard fouling; [3]", "value": "G"}, {"measurement": "Performance (1 yr immersed) Hard fouling", "setting": "hard fouling; [6]", "value": "G"}, {"measurement": "Performance (1 yr immersed) Hard fouling", "setting": "hard fouling; [11]", "value": "G"}, {"measurement": "Performance (1 yr immersed) Slime", "setting": "slime; [1]", "value": "S"}, {"measurement": "Performance (1 yr immersed) Slime", "setting": "slime; [2]", "value": "S"}, {"measurement": "Performance (1 yr immersed) Slime", "setting": "slime; [3]", "value": "G"}, {"measurement": "Performance (1 yr immersed) Slime", "setting": "slime; [4]", "value": "S"}, {"measurement": "Performance (1 yr immersed) Slime", "setting": "slime; [5]", "value": "S"}, {"measurement": "Performance (1 yr immersed) Slime", "setting": "slime; [6]", "value": "G"}, {"measurement": "Performance (1 yr immersed) Slime", "setting": "slime; [7]", "value": "S"}, {"measurement": "Performance (1 yr immersed) Slime", "setting": "slime; [8]", "value": "S"}, {"measurement": "Performance (1 yr immersed) Slime", "setting": "slime; [9]", "value": "S"}, {"measurement": "Performance (1 yr immersed) Slime", "setting": "slime; [10]", "value": "F"}, {"measurement": "Performance (1 yr immersed) Slime", "setting": "slime; [11]", "value": "S"}, {"measurement": "Performance (1 yr immersed) Algae", "setting": "algae; [2]", "value": "G"}, {"measurement": "Performance (1 yr immersed) Algae", "setting": "algae; [3]", "value": "G"}, {"measurement": "Performance (1 yr immersed) Algae", "setting": "algae; [4]", "value": "G"}, {"measurement": "Performance (1 yr immersed) Algae", "setting": "algae; [5]", "value": "G"}, {"measurement": "Performance (1 yr immersed) Algae", "setting": "algae; [6]", "value": "G"}, {"measurement": "Performance (1 yr immersed) Algae", "setting": "algae; [7]", "value": "G"}, {"measurement": "Performance (1 yr immersed) Algae", "setting": "algae; [8]", "value": "G"}, {"measurement": "Performance (1 yr immersed) Algae", "setting": "algae; [9]", "value": "G"}]}
